Entries after “also recorded” stand apart in the source; their conditions may differ.
Legend:
Assay type in all cases: cell-based, human
PC3 [1] = experiment: Pan-caspase detection (FAM-VAD-FMK, confocal); conditions: PC3, 24 h DEFB1 induction
Protocol: Detection of caspase activity in the prostate cancer cell lines was performed using APO LOGIX™ Carboxyfluorescin Caspase detection kit (Cell Technology, Mountain View, Calif.). Active caspases were detected through the use of a FAM-VAD-FMK inhibitor that irreversibly binds to active caspases. Briefly, DU 145 and PC3 cells (1.5-3×10^5) containing the DEFB1 expression system were plated in 35 mm glass bottom microwell dishes (Matek, Ashland, Mass.) and treated for 24 hours with media only or with media containing PonA as previously described. Next, 10 μl of a 30× working dilution of carboxyfluorescein labeled peptide fluoromethyl ketone (FAM-VAD-FMK) was added to 300 μl of media and added to each 35 mm dish. Cells were then incubated for 1 hour at 37° C. under 5% CO2. […] The fluorescent signal was analyzed using a confocal microscope (Zeiss LSM 5 Pascal) and a 63×DIC oil lens with a Vario 2 RGB Laser Scanning Module.
Pan-Caspase Detection: Detection of caspase activity in the prostate cancer cell lines was performed using APO LOGIX™ Carboxyfluorescin Caspase detection kit (Cell Technology, Mountain View, Calif.). Active caspases were detected through the use of a FAM-VAD-FMK inhibitor that irreversibly binds to active caspases. […] The fluorescent signal was analyzed using a confocal microscope (Zeiss LSM 5 Pascal) and a 63×DIC oil lens with a Vario 2 RGB Laser Scanning Module. […]

DU145 = experiment: Acridine orange/ethidium bromide membrane integrity
Protocol: (§1) Analysis of Membrane Permeability: Acridine orange (AO)/ethidium bromide (EtBr) dual staining was performed to identify changes in cell membrane integrity, as well as apoptotic cells by staining the condensed chromatin. AO stains viable cells as well as early apoptotic cells, whereas EtBr stains late stage apoptotic cells that have lost […]. Briefly, cells were seeded into 2 chamber culture slides (BD Falcon, USA). Cells transfected with empty pIND plasmid/pvgRXR or pIND DEFB1/pvgRXR were induced for 24 or 48 h with media containing 10 μM Ponasterone A. Control cells were provided fresh media at 24 and 48 h. In order to determine the effect of PAX2 inhibition on membrane integrity, separate culture slides containing DU145, PC3 and LNCaP were treated with PAX2 siRNA and incubated for 4 days. Following this, cells were washed once with PBS and stained with 2 ml of a mixture (1:1) of AO (Sigma, USA) and EtBr (Promega, USA) (5 ug/ml) solution for 5 min. Following staining, the cells were again washed with PBS. Fluorescence was viewed by a Zeiss LSM 5 Pascal Vario 2 Laser Scanning Confocal Microscope (Carl Zeiss Jena, Germany). The excitation color wheel contain BS505-530 (green) and LP560 (red) filter blocks which allowed for the separation of emitted green light from AO into the green channel and red light from EtBr into the red channel. The laser power output and gain control settings within each individual experiment were identical between control and DEFB1 induced cells. The excitation was provided by a Kr/Ar mixed gas laser at wavelengths of 543 nm for AO and 488 nm for EtBr. Slides were analyzed under 40× magnification and digital images were stored as uncompressed TIFF files and exported into Photoshop CS software (Adobe Systems, San Jose, Calif.) for image processing and hard copy presentation.
(§2) Analysis of membrane integrity: Acridine orange (AO)/ethidium bromide (EtBr) dual staining was performed to identify changes in cell membrane integrity, as well as apoptotic cells by staining the condensed chromatin. AO stains viable cells and early apoptotic cells, whereas EtBr stains late stage apoptotic cells that have compromised membranes. Briefly, PC3, DU145 and LNCaP cells were seeded into 2-chamber culture slides (BD Falcon). Cells transfected with empty plasmid or hBD-1 plasmid were induced for 24 or 48 h with media containing 10 μM Pon A, while control cells received fresh growth media at each time point. After induction, cells were washed once with PBS and stained with 2 ml of a mixture (1:1) of AO (Sigma, St. Louis, Mo.) and EtBr (Promega) (5 μg/ml) solution for 5 min and were again washed with PBS.
(§3) Fluorescence was viewed by a Zeiss LSM 5 Pascal Vario 2 Laser Scanning Confocal Microscope (Carl Zeiss). The excitation color wheel contains BS505-530 (green) and LP560 (red) filter blocks which allowed for the separation of emitted green light from AO into the green channel and red light from EtBr into the red channel. The laser power output and gain control settings within each individual experiment were identical between control and hBD-1 induced cells. The excitation was provided by a Kr/Ar mixed gas laser at wavelengths of 543 nm for AO and 488 nm for EtBr. Slides were analyzed under 40× magnification and digital images were stored as uncompressed TIFF files and exported into Photoshop CS software (Adobe Systems) for image processing and hard copy presentation. […]

LNCaP = experiment: as above; conditions: 48 h hBD-1 induction
Protocol: as §1, §2, §3

PC3 [2] = experiment: as above
Protocol: as §1, §2, §3

## DEFB1: human beta defensin-1 expressed from the ecdysone inducible pIND/DEFB1 construct, induced with Ponasterone A (DHYNCVSSGGQCLYSACPIFTKIQGTCYRGKAKCCK; UniProt P60022 33-68, looked up)
PC3 [1]
  caspase activity: revealed caspase activity; also recorded: green staining
DU145; DU145, 24 h DEFB1 (hBD-1) induction
  membrane integrity (AO/EtBr staining): accumulation of EtBr in the cytoplasm
DU145; DU145, 48 h DEFB1 (hBD-1) induction
  membrane integrity (AO/EtBr staining): condensed nuclei and appeared yellow
LNCaP
  membrane integrity (AO/EtBr staining): no observable alterations to membrane integrity
PC3 [2]; PC3, 24 h DEFB1 (hBD-1) induction
  membrane integrity (AO/EtBr staining): accumulation of EtBr in the cytoplasm
PC3 [2]; PC3, 48 h DEFB1 (hBD-1) induction
  membrane integrity (AO/EtBr staining): condensed nuclei and appeared yellow
